# Measured values: patent US12421243B2, “Pharmaceutically effective compounds inhibiting selectively the myosin 2 isoforms” (PRINTNET KERESKEDELMI ÉS SZOLGÁLTATÓ KFT., priority 2018, dated 2025)
# Assays:
# [1] = molecular target: recombinant Dictyostelium miozin (Dictyostelium) (Dictyostelium discoideum, UniProt P08799); test: actomyosin steady state ATPase measurement, Dictyostelium myosin; format: biochemical; conditions: for IC50: concentration required for semi-maximal inhibition of ATPase, read-out: IC50 (μM) Dicty; for inhibition at 5 µM: read-out: % inhibition at 5 μM (or 10 μM if racemate) Dicty; for inhibition at 50 µM: read-out: % inhibition at 50 μM (or 100 μM if racemate) Dicty; for % inhibition. complete Dicty: maximum value of inhibition of ATPase activity
# Text: (§1) […]; (ii) the concentration required for semi-maximal inhibition.
# [2] = molecular target: recombinant human non-muscle myosin 2 NM2A (Homo sapiens, UniProt P35579); test: actomyosin steady state ATPase measurement, NM2A; format: biochemical; conditions: for IC50: concentration required for semi-maximal inhibition of ATPase; for % inhibition. complete NM2A: maximum value of inhibition of ATPase activity; for inhibition at 5 µM: read-out: % inhibition at 5 μM (or 10 μM if racemate) NM2A, 5 μM (10 μM if racemate); for inhibition at 5 µM / inhibition at 50 µM: ATPase activity; for inhibition at 50 µM: read-out: % inhibition at 50 μM (or 100 μM if racemate) NM2A, 50 μM (100 μM if racemate)
# Text: as §1
# [3] = molecular target: recombinant human non-muscle myosin 2 NM2C (Homo sapiens, UniProt Q7Z406); test: actomyosin steady state ATPase measurement, NM2C; format: biochemical; conditions: for IC50: concentration required for semi-maximal inhibition of ATPase; for Inhibition (%) NM2C: maximum inhibition, compounds in IC50 range 1-5 μM; for % inhibition. complete NM2C: maximum value of inhibition of ATPase activity; for inhibition at 5 µM: read-out: % inhibition at 5 μM (or 10 μM if racemate) NM2C, 5 μM (10 μM if racemate); for inhibition at 5 µM / inhibition at 50 µM: ATPase activity; for inhibition at 50 µM: read-out: % inhibition at 50 μM (or 100 μM if racemate) NM2C, 50 μM (100 μM if racemate)
# Text: as §1
# [4] = molecular target: T1, isolated porcine cardiac ventricular myocardium (cardiac) (Sus scrofa, UniProt P79293); test: actomyosin steady state ATPase measurement, cardiac myosin; format: biochemical; conditions: for IC50: concentration required for semi-maximal inhibition of ATPase; for % inhibition. complete cardiac: maximum value of inhibition of ATPase activity; for inhibition at 5 µM: read-out: % inhibition at 5 μM (or 10 μM if racemate) cardiac, 5 μM (10 μM if racemate); for inhibition at 5 µM / inhibition at 50 µM: ATPase activity; for inhibition at 50 µM: read-out: % inhibition at 50 μM (or 100 μM if racemate) cardiac, 50 μM (100 μM if racemate)
# T1 construct: isolated porcine cardiac ventricular myocardium (cardiac); from tissue; host or cells: porcine cardiac ventricle
# Text: as §1
# [5] = tested on: isolated rabbit skeletal muscle myosin (skeletal); test: actomyosin steady state ATPase measurement, skeletal muscle myosin; format: biochemical; conditions: for % inhibition at 5 μM (or 10 μM if racemate) Skeletal: 5 μM (10 μM if racemate); for % inhibition at 5 μM (or 10 μM if racemate) Skeletal / % inhibition at 50 μM (or 100 μM if racemate) Skeletal: ATPase activity; for % inhibition at 50 μM (or 100 μM if racemate) Skeletal: 50 μM (100 μM if racemate); for IC50: concentration required for semi-maximal inhibition of ATPase; for % inhibition. complete Skeletal: maximum value of inhibition of ATPase activity
# Text: as §1
# [6] = molecular target: isolated smooth muscle myosin (UniProt P10587); format: biochemical, chamois; conditions: concentration required for semi-maximal inhibition of ATPase
# Text: (ii) the concentration required for semi-maximal inhibition.
# M. quadriceps femoris = test: isometric force measurement of live, anesthetized rat M. quadriceps femoris due to electrical stimulation; format: in vivo
# Description: (§2) The maximum isometric force induced by the stimulation was determined after intraperitoneal injection of some of the compounds of the invention. During the measurement, the following parameters of live anesthetized rats were continuously monitored: • a) heart rate • b) blood flow in the neck arteries • c) respiratory frequency • d) blood oxygen saturation ratio Results from live anesthetized rats are summarized in the table below.
# [7] = vital parameters of live anesthetized rats monitored during isometric force measurement; format: in vivo; conditions: anesthetized rat; for Maximum change of vital parameters (%) blood flow: neck arteries
# Description: as §2, with “ratio” for “ratio Results from live anesthetized rats are summarized in the table below.”
# [8] = solubility in PBS in the presence of 1% DMSO; format: physicochemical; conditions: phosphate buffered saline with 1% DMSO, aqueous buffer, kinetic from dmso stock, PBS w/o Mg, Ca
# [9] = molecular target: isolated smooth muscle myosin (UniProt P10587); format: biochemical, chamois; conditions: for % inhibition at 5 μM (or 10 μM if racemate) Smooth: 5 μM (10 μM if racemate); for % inhibition at 5 μM (or 10 μM if racemate) Smooth / % inhibition at 50 μM (or 100 μM if racemate) Smooth: ATPase activity; for % inhibition at 50 μM (or 100 μM if racemate) Smooth: 50 μM (100 μM if racemate); for % inhibition. complete Smooth: maximum value of inhibition of ATPase activity
# Sequence of recombinant human non-muscle myosin 2 NM2A (P35579 whole entry): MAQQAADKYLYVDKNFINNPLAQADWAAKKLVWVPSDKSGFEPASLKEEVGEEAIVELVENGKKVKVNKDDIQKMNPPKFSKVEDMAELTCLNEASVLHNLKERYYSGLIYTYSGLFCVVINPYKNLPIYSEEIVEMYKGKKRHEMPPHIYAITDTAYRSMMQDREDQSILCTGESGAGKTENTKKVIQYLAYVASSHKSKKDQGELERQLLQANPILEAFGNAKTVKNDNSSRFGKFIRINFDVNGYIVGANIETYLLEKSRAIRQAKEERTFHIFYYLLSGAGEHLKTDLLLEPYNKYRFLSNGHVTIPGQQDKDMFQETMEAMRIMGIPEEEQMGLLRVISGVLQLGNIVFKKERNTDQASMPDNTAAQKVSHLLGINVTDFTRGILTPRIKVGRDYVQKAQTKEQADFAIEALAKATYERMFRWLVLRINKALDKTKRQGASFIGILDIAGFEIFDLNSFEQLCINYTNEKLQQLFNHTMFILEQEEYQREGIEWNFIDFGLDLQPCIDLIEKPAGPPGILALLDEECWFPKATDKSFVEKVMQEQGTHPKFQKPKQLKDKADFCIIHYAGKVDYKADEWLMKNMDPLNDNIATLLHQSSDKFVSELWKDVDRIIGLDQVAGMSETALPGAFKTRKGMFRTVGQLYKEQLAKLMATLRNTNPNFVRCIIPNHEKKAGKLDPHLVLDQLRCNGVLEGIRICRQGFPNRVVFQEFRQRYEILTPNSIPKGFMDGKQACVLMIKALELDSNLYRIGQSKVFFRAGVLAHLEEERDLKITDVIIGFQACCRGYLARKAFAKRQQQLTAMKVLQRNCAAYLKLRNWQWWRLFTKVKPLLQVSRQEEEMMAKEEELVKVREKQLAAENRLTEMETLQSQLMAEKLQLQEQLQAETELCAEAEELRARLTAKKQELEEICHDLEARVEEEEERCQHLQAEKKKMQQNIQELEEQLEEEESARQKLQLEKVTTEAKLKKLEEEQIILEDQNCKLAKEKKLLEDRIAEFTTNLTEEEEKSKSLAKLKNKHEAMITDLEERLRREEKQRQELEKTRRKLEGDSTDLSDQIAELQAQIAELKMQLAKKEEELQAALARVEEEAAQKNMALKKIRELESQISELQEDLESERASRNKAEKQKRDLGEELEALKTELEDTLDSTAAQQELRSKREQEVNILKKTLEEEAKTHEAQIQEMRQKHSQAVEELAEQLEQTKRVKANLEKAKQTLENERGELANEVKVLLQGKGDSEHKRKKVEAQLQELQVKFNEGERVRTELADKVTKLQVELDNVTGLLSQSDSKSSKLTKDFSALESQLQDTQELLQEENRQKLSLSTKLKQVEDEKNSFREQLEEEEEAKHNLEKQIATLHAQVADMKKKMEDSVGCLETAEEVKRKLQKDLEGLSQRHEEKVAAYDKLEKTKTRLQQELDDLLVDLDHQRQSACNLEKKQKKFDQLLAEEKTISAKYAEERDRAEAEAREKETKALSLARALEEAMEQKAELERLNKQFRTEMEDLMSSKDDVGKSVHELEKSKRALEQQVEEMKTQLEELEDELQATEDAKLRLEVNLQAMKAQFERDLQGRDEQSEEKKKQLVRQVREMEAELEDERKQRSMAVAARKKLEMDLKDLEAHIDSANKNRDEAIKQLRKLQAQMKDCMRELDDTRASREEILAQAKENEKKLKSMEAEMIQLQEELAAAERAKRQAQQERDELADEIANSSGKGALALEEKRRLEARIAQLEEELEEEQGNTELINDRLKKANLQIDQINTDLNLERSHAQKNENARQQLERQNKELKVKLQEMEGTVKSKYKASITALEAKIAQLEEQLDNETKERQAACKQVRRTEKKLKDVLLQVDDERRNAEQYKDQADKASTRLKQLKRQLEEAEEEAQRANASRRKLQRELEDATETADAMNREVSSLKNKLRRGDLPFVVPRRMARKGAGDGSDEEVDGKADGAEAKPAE
# Sequence of recombinant Dictyostelium miozin (Dictyostelium) (P08799 whole entry): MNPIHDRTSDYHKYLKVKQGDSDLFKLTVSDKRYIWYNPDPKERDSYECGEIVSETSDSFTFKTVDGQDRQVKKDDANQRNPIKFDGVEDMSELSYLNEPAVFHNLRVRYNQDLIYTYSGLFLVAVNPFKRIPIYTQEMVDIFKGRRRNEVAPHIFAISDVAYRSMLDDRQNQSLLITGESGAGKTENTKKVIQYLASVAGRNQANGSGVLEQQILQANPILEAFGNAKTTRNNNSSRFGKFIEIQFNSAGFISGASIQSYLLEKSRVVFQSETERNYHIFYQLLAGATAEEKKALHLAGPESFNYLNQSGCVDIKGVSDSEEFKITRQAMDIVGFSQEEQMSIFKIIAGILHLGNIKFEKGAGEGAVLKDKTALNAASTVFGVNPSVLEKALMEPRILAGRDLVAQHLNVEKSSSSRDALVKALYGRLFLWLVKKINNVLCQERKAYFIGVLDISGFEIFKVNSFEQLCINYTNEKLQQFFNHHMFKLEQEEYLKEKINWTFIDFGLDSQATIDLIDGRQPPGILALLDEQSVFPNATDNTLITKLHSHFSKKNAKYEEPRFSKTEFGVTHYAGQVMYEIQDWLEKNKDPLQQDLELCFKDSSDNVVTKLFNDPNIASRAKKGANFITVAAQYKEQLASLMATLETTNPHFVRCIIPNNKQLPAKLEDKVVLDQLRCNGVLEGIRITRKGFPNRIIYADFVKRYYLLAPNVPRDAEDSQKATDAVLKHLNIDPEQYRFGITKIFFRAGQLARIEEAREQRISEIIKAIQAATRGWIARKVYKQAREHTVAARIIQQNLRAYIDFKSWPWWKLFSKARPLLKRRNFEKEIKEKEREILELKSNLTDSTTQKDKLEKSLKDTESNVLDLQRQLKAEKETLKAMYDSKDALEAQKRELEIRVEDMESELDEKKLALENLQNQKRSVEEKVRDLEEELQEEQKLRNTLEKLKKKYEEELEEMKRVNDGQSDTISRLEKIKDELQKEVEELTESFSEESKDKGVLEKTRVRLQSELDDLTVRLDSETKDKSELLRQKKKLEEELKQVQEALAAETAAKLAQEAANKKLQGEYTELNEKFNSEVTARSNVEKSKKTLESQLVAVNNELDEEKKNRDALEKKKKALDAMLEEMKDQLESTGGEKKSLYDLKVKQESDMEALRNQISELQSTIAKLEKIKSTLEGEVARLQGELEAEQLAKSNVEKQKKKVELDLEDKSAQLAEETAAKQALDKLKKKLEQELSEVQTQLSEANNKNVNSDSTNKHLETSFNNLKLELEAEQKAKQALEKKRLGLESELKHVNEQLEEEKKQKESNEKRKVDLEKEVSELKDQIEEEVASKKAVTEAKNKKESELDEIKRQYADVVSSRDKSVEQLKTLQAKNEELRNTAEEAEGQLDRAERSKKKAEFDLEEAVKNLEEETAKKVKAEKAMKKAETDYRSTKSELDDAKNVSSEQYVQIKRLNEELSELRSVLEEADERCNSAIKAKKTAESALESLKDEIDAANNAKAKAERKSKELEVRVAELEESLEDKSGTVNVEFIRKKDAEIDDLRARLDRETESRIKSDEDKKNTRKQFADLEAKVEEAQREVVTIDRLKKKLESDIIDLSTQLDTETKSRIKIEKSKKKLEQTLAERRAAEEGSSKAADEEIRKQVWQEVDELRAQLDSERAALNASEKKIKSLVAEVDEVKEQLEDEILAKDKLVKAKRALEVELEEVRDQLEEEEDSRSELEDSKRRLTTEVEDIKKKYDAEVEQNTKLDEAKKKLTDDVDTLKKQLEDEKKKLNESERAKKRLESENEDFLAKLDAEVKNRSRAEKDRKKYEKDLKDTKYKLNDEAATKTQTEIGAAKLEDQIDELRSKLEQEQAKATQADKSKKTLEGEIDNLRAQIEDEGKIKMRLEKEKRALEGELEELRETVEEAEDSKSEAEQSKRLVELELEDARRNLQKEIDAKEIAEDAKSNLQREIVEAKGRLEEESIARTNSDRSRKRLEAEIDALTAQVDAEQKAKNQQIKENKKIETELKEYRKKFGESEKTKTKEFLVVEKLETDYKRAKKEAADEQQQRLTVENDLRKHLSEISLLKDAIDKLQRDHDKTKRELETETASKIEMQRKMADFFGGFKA
smiles,measurement,setting,value
"Cc1cc2c(s1)N=C1N(c3ccc(N4CCOCC4)cc3)CCC1(O)C2=O (stereo not drawn) [Compound 220, 9-Hydroxy-5-methyl-12-[4-(morpholin-4-yl)phenyl]-4-thia-2,12-diazatricyclo[7.3.0.0^3,7]dodeca-1,3(7),5-trien-8-one]",IC50,[1],> 100 µM
same,inhibition at 5 µM,[1],0%
same,inhibition at 50 µM,[1],0%
same,IC50,[2],0.93 µM
same,% inhibition. complete NM2A,[2],20%
same,inhibition at 5 µM,[2],16%
same,inhibition at 50 µM,[2],22%
same,IC50,[3],1.8 µM
same,Inhibition (%) NM2C,[3],24%
same,% inhibition. complete NM2C,[3],24%
same,inhibition at 5 µM,[3],19%
same,inhibition at 50 µM,[3],21%
same,IC50,[4],5.6 µM
same,Inhibition (%) cardiac,"[4]; maximum inhibition, compounds in IC50 range 3-6 μM",39%
same,% inhibition. complete cardiac,[4],39%
same,inhibition at 5 µM,[4],17%
same,inhibition at 50 µM,[4],37%
same,% inhibition at 5 μM (or 10 μM if racemate) Skeletal,[5],86%
same,% inhibition at 50 μM (or 100 μM if racemate) Skeletal,[5],94%
same,IC50,[5],0.49 µM
same,% inhibition. complete Skeletal,[5],96%
same,IC50,[6],2.3 µM
same,Maximum change in isometric force at rear leg (%),M. quadriceps femoris; 1 mg i.p.,19%
same,Maximum change in isometric force at rear leg (%),M. quadriceps femoris; 3 mg i.p.,23%
same,Maximum change in isometric force at rear leg (%),M. quadriceps femoris; 6 mg i.p.,42%
same,Maximum change of vital parameters (%) heart rate,[7]; 1 mg i.p.,1%
same,Maximum change of vital parameters (%) oxygen saturation,[7]; 1 mg i.p.,−1%
same,Maximum change of vital parameters (%) respiratory frequency,[7]; 1 mg i.p.,−13%
same,Maximum change of vital parameters (%) blood flow,[7]; 1 mg i.p.,8%
same,Maximum change of vital parameters (%) heart rate,[7]; 3 mg i.p.,8%
same,Maximum change of vital parameters (%) oxygen saturation,[7]; 3 mg i.p.,−17%
same,Maximum change of vital parameters (%) respiratory frequency,[7]; 3 mg i.p.,−21%
same,Maximum change of vital parameters (%) blood flow,[7]; 3 mg i.p.,19%
same,Maximum change of vital parameters (%) heart rate,[7]; 6 mg i.p.,22%
same,Maximum change of vital parameters (%) oxygen saturation,[7]; 6 mg i.p.,−28%
same,Maximum change of vital parameters (%) respiratory frequency,[7]; 6 mg i.p.,−22%
same,Maximum change of vital parameters (%) blood flow,[7]; 6 mg i.p.,−1%
same,Maximum change of vital parameters (%) heart rate,[7]; 10 mg i.p.,3%
same,Maximum change of vital parameters (%) oxygen saturation,[7]; 10 mg i.p.,−41%
same,Maximum change of vital parameters (%) respiratory frequency,[7]; 10 mg i.p.,−30%
same,Maximum change of vital parameters (%) blood flow,[7]; 10 mg i.p.,−3%
same,solubility,[8],710 µM
same,% inhibition at 5 μM (or 10 μM if racemate) Smooth,[9],34%
same,% inhibition at 50 μM (or 100 μM if racemate) Smooth,[9],54%
same,% inhibition. complete Smooth,[9],51%
"CC(=O)c1ccc(N2CC[C@@]3(O)C(=O)c4ccsc4N=C23)cc1 [Compound 214, (9S)-12-(4-acetylphenyl)-9-hydroxy-4-thia-2,12-diazatricyclo[7.3.0.0^3,7]dodeca-1,3(7),5-trien-8-one]",IC50,[1],36 µM
same,% inhibition. complete Dicty,[1],100%
same,inhibition at 5 µM,[1],8%
same,inhibition at 50 µM,[1],59%
same,IC50,[2],1 µM
same,% inhibition. complete NM2A,[2],32%
same,inhibition at 5 µM,[2],25%
same,inhibition at 50 µM,[2],31%
same,IC50,[3],2.9 µM
same,Inhibition (%) NM2C,[3],36%
same,% inhibition. complete NM2C,[3],36%
same,inhibition at 5 µM,[3],21%
same,inhibition at 50 µM,[3],34%
same,IC50,[4],8.8 µM
same,% inhibition. complete cardiac,[4],86%
same,inhibition at 5 µM,[4],30%
same,inhibition at 50 µM,[4],73%
same,% inhibition at 5 μM (or 10 μM if racemate) Skeletal,[5],80%
same,% inhibition at 50 μM (or 100 μM if racemate) Skeletal,[5],97%
same,IC50,[5],1.2 µM
same,% inhibition. complete Skeletal,[5],100%
same,IC50,[6],49 µM
same,solubility,[8],820 µM
same,% inhibition at 5 μM (or 10 μM if racemate) Smooth,[9],6%
same,% inhibition at 50 μM (or 100 μM if racemate) Smooth,[9],52%
same,% inhibition. complete Smooth,[9],100%
"COc1ccc(N2CC[C@@]3(O)C(=O)c4ccsc4N=C23)cc1 [Compound 211, (9S)-9-hydroxy-12-(4-methoxyphenyl)-4-thia-2,12-diazatricyclo[7.3.0.0^3,7]dodeca-1,3(7),5-trien-8-one]",IC50,[1],9.4 µM
same,% inhibition. complete Dicty,[1],100%
same,inhibition at 5 µM,[1],33%
same,inhibition at 50 µM,[1],85%
same,IC50,[2],22 µM
same,% inhibition. complete NM2A,[2],99%
same,inhibition at 5 µM,[2],17%
same,inhibition at 50 µM,[2],69%
same,IC50,[3],2 µM
same,% inhibition. complete NM2C,[3],70%
same,inhibition at 5 µM,[3],46%
same,inhibition at 50 µM,[3],67%
same,IC50,[4],1.3 µM
same,% inhibition. complete cardiac,[4],87%
same,inhibition at 5 µM,[4],67%
same,inhibition at 50 µM,[4],85%
same,% inhibition at 5 μM (or 10 μM if racemate) Skeletal,[5],93%
same,% inhibition at 50 μM (or 100 μM if racemate) Skeletal,[5],98%
same,IC50,[5],0.28 µM
same,% inhibition. complete Skeletal,[5],98%
same,IC50,[6],7 µM
same,solubility,[8],510 µM
same,% inhibition at 5 μM (or 10 μM if racemate) Smooth,[9],34%
same,% inhibition at 50 μM (or 100 μM if racemate) Smooth,[9],74%
same,% inhibition. complete Smooth,[9],85%
